Measured values reported in patent US20200331950A1, “SGLTS INHIBITOR AND APPLICATION THEREOF” (SHANDONG DANHONG PHARMACEUTICAL CO., LTD., priority 2018, published 2020).

Tests used:
Human-SGLT1 = target: T1, Human-SGLT1 (Homo sapiens, UniProt P13866); assay: SGLT1 glucose transport test ([14C]-labeled methyl a-D-glucopyranoside uptake); format: cell-based; details: cells stably expressing Human-SGLT1; 37° C., 2 hours
T1 sequence (P13866 1-664): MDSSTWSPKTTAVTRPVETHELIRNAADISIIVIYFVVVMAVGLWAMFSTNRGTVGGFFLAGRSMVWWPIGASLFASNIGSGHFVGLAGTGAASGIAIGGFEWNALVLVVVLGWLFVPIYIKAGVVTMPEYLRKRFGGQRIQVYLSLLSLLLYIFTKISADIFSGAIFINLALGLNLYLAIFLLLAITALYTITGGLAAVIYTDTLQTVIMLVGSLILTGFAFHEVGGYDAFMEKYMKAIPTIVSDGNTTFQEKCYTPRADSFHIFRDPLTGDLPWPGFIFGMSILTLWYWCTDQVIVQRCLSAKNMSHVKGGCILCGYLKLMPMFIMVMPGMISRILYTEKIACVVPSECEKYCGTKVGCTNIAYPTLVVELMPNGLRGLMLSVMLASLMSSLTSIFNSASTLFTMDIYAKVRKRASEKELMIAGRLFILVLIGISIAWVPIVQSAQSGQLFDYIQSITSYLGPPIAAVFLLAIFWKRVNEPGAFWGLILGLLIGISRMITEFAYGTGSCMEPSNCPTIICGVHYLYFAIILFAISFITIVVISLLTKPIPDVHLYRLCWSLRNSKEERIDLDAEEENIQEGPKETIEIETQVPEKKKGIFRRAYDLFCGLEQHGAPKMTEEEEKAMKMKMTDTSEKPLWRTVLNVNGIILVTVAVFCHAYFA
Source text: Biological Activity Experiment 1: SGLT1 Glucose Transport Test.
1. Purpose of the Experiment:
The effect of the compound on the glucose transport activity of SGLT1 transporter was detected by measuring the amount of [′C]-labeled glucose entering cells with high expression of Human-SGLT1.
The cells stably expressing Human-SGLT1 were constructed by Wuxi AppTec(Shanghai) Co., Ltd. SGLT1 cells were laid in Cytostar-T (PerkinElmer) 96-well cell culture plate and cultured overnight in 5% CO2 environment at 37° C.
2.2. SGLT1 Glucose Transport Test.
1) Experimental buffer, including: 10 mM 4-hydroxyethylpiperazineethanesulfonic acid (HEPES), 1.2 mM magnesium chloride (MgCl2), 4.7 mM potassium chloride (KCl), 2.2 mM calcium chloride (CaCl2) and 120 mM sodium chloride (NaCl).
2) Compounds were serially diluted in 100% dimethyl sulfoxide (DMSO) starting at 1 mM and make a 5-folds, 8 points serials compound dilutions.
3) 3 μM [′^4C]-labeled methyl a-D-glucopyranoside was prepared with the experimental buffer.
4) The cells were treated with 49 uL of the experimental buffer, 1 μL of the gradient diluted compound and 50 μL of the 3 μM [^14C]-labeled methyl a-D-lucopyranosid solution at 37° C. for 2 hours.
5) The data were read with an isotope detector Micro beta Reader.
6) The IC50 value of the tested compound was obtained by the calculation formula: log(inhibitor) vs. response—Variable slope, using GraphPad Prism 5.0 software.

[1] = In vivo pharmacokinetics in rats; details: male SD rats; for Oral DNAUC (AUCPO/Dose) / bioavailability: oral 2 mg/kg; for clearance / half-life / Vd / bioavailability / Cmax: rat, plasma; for clearance / half-life / Vd / Cmax: intravenous 1 mg/kg or oral 2 mg/kg; for clearance: read-out: Cl (clearance rate); for half-life: read-out: T1/2 (half-life) (converted); for Vd: read-out: Vdss (distribution volume); for bioavailability: intravenous 1 mg/kg, read-out: F % (oral bioavailability); for Cmax: single administration
Source text: Study on the In Vivo Pharmacokinetics in Rats
The purpose of the experiment: Male SD rats were used as test animals and were given a single administration to determine the plasma concentration of the compound and evaluate the pharmacokinetic behavior.
Experimental method: Six healthy adult male SD rats were divided into 2 groups, with 3 rats in an intravenous injection group and 3 rats in an oral administration group. In the intravenous injection group, the test compound was mixed with an appropriate amount of vehicle (10% N-methyl pyrrolidone (NMP)/10% polyethylene glycol-15 hydroxystearate (available from solutol)/80% water), then vortexed and sonicated to prepare 0.2 mg/mL clear solution, which was filtered by microporous membrane. In the oral administration group, 10% N-methyl pyrrolidone (NMP)/10% polyethylene glycol-15 hydroxy stearate (available from solutol)/80% water was used as a vehicle and mixed with the test compound, then vortexed and sonicated to prepare 0.40 mg/mL clear solution. The rats were given intravenous administration at a dose of 1 mg/kg or oral administration at a dose of 2 mg/kg. Whole blood was collected at a certain period of time to prepare the plasma. The drug concentration of the plasma was analyzed by LC-MS/MS method, and the pharmacokinetic parameters were calculated using Phoenix WinNonlin software (Pharsight Company, USA).

IC50 (Human-SGLT1) [nM] | Oral DNAUC (AUCPO/Dose) [1] [nM · h/mpk] | clearance [1] [mL/min/kg] | half-life [1] [min] | Vd [1] [L/kg] | bioavailability [1] [%] | Cmax [1] [nM] | SMILES
49.5 | 1013 | 14.5 | 154 | 2.94 | 47.7 | 391 | CS[C@H]1O[C@@H](c2ccc(C)c(Cc3ccc(C4=CCC(F)(F)CC4)cc3)c2)[C@H](O)[C@@H](O)[C@@H]1O [WXD003]
210 | 1823 | 10.1 | 275 | 3.86 | 59 | 410 | CS[C@H]1OC(c2ccc(Cl)c(Cc3ccc(C4=CCC(F)(F)CC4)cc3)c2)[C@H](O)[C@@H](O)[C@@H]1O (stereo partly drawn) [WXD001]
14.8 | 2320 | 8.06 | 270 | 2.48 | 56.4 | 356 | CCc1ccc([C@@H]2O[C@H](SC)[C@@H](O)[C@H](O)[C@H]2O)cc1Cc1ccc(C2=CCC(F)(F)CC2)cc1 [WXD010]
